Experimental data: patent publication US20140093499A1, “PHARMACEUTICAL COMBINATIONS COMPRISING DUAL ANGIOPOIETIN-2 / DLL4 BINDERS AND ANTI-VEGF AGENTS” (BOEHRINGER INGELHEIM INTERNATIONAL GMBH, priority 2012, published 2014)

What was measured:
[1] = Body weight and deaths in PDX tumor-bearing nude mice; conditions: mouse, in vivo
Protocol: Mice were 5-7 week-old female Crl:NMRI-Foxn1^nu purchased from Charles River, Sulzfeld, Germany. After arrival, mice were allowed to adjust to ambient conditions for at least 5 days before they were used for the experiments. They were housed in individual ventilated Makrolon® type II long cages under standardized conditions at 25±1° C. temperatures and 55±10% humidity. Standardized diet (Teklad Global 19% Protein Extruded Diet (T.20195.12) from Harlan Laboratories) and sterile filtrated and acidified (pH 2.5) tap water were provided ad libitum. Ear clips were used to identify each mouse. Cage cards showing the study number, the animal identification number, the compound and dose level, the administration route as well as the schedule remained with the animals throughout the study.
Tumor diameters were measured twice weekly with a caliper. The volume of each tumor [in mm^3] was calculated according to the formula “tumor volume=length*diameter^2*0.5.” To monitor side effects of treatment, mice were inspected daily for abnormalities and body weight was determined twice weekly. Animals with tumor sizes exceeding 1.5 cm in diameter or 20% body weight loss were euthanized for ethical reasons.

[2] = system: LXFE 1422 non small cell lung cancer xenograft; experiment: LXFE 1422 patient-derived tumor xenograft efficacy in nude mice; assay type: in vivo, human; conditions: BI-1 13.6 mg/kg twice weekly i.p., BIBF1120 50 mg/kg once daily p.o., Bevacizumab 15 mg/kg twice weekly i.p.
From the text: (§1) The goal of the present study was to assess the efficacy of BI-1 in combination with Bevacizumab, BIBF1120 or Sunitinib in models of human non small cell lung cancer (LXFE 211, LXFE 1422), colon cancer (CXF 243), mammary cancer (MAXF 401), ovarian cancer (OVXF 1353), pancreatic cancer (PAXF 546) and renal cancer (RXF 1220) in nude mice. All models were patient-derived tumor xenografts (PDX), which were transplanted from patients to nude mice and passaged subcutaneously. These models retain most of the characteristics of the parental patient tumors including histology.
(§2) Tumor fragments were obtained from tumor xenografts in serial passage in nude mice. After removal from donor mice, tumors were cut into fragments (4-5 mm diameter) and placed in PBS until subcutaneous implantation. Recipient mice were anesthetized by inhalation of isoflurane. […] Mice were monitored daily. […]
(§3) The doses of BI-1 and Bevacizumab were calculated to the average body weight of all mice on day 1 (28 g) and administered intraperitoneally twice weekly in a volume of 100 μl per mouse. […]
(§4) Tumor diameters were measured twice weekly with a caliper. The volume of each tumor [in mm^3] was calculated according to the formula “tumor volume=length*diameter^2*0.5.” To monitor side effects of treatment, mice were inspected daily for abnormalities and body weight was determined twice weekly. […]

[3] = system: OVXF 1353 ovarian cancer xenograft; experiment: OVXF 1353 patient-derived tumor xenograft efficacy in nude mice; assay type: in vivo, human; conditions: BI-1 13.6 mg/kg twice weekly i.p., BIBF1120 50 mg/kg once daily p.o., Bevacizumab 15 mg/kg twice weekly i.p.
From the text: as §1, §2, §3, §4

[4] = system: human non-small cell lung cancer (NCl-H1975) xenografts; experiment: NCl-H1975 subcutaneous xenograft efficacy in nude mice; assay type: in vivo; conditions: NCl-H1975, day 1 to day 14; Bevacizumab 25 mg/kg twice weekly i.p., BIBF 1120 50 mg/kg daily p.o., BI-1 13.6 mg/kg twice weekly i.p.
Protocol: The goal of the present study was to assess the efficacy of BI-1 in combination with Bevacizumab and BIBF 1120 in a model of human non small cell lung cancer (NCl-H1975) in nude mice.
• Model: Subcutaneous xenografts of the human non-small cell lung cancer (NCl-H1975) growing in nude mice
To establish subcutaneous tumors, NCl-H1975 cells were harvested by centrifugation, washed and resuspended in PBS+5% FCS at 5×10^7 cells/ml. 100 μl cell suspension containing 5×10^6 cells was then injected subcutaneously into the right flank of the mice (1 site per mouse). Mice were randomly distributed between the treatment and the vehicle control group (7 days after cell injection) when tumors were well established and had reached volumes of 63 to 104 mm3.
The doses of BI-1 and Bevacizumab were calculated to the average body weight of all mice on day 1 (28 g) and administered intraperitoneally twice weekly in a volume of 100 μl per mouse. BIBF 1120 was dosed according to the body weight (mg/kg) and administered daily perorally.
Tumor diameters were measured three times a week (Monday, Wednesday and Friday) with a caliper. The volume of each tumor [in mm3] was calculated according to the formula “tumor volume=length*diameter2*π/6.” To monitor side effects of treatment, mice were inspected daily for abnormalities and body weight was determined three times a week (Monday, Wednesday and Friday). […]

[5] = system: MAXF 401 mammary cancer xenograft; experiment: MAXF 401 patient-derived tumor xenograft efficacy in nude mice; assay type: in vivo, human; conditions: BI-1 13.6 mg/kg twice weekly i.p., BIBF1120 50 mg/kg once daily p.o., Bevacizumab 15 mg/kg twice weekly i.p.
From the text: as §1, §2, §3, §4

[6] = system: PAXF 546 pancreatic cancer xenograft; experiment: PAXF 546 patient-derived tumor xenograft efficacy in nude mice; assay type: in vivo, human; conditions: BI-1 13.6 mg/kg twice weekly i.p., BIBF1120 50 mg/kg once daily p.o., Bevacizumab 15 mg/kg twice weekly i.p.
From the text: as §1, §2, §3, §4

[7] = system: CXF 243 colon cancer xenograft; experiment: CXF 243 patient-derived tumor xenograft efficacy in nude mice; assay type: in vivo, human; conditions: BI-1 13.6 mg/kg twice weekly i.p., BIBF1120 50 mg/kg once daily p.o., Bevacizumab 15 mg/kg twice weekly i.p.
From the text: as §1, §2, §3, §4

[8] = system: LXFE 211 non small cell lung cancer xenograft; experiment: LXFE 211 patient-derived tumor xenograft efficacy in nude mice; assay type: in vivo, human; conditions: BI-1 13.6 mg/kg twice weekly i.p., BIBF1120 50 mg/kg once daily p.o., Bevacizumab 15 mg/kg twice weekly i.p.
From the text: as §1, §2, §3, §4

[9] = system: RXF 1220 renal cancer xenograft; experiment: RXF 1220 patient-derived tumor xenograft efficacy in nude mice; assay type: in vivo, human; conditions: BI-1 13.6 mg/kg twice weekly i.p., Sunitinib 40 mg/kg once daily, Bevacizumab 15 mg/kg twice weekly i.p.
From the text: as §1
Sunitinib (Sutent®, Pfizer) tablets were ground with mortar and pestle and 108.48 mg powder (corresponding to 32 mg API; correction factor: 3.39) were dissolved in PBS (pH 5).
Tumor fragments were obtained from tumor xenografts in serial passage in nude mice. […] Mice were monitored daily. […]
as §3, §4

With `COC(=O)c1ccc2c(c1)NC(=O)/C2=C(\Nc1ccc(N(C)C(=O)CN2CCN(C)CC2)cc1)c1ccccc1` [BIBF 1120] the “maximum median body weight loss” value [1] was 5.9%, the TGI [2] was 57% and the TGI [3] was 78%. For the same compound, the “median TGI (tumor growth inhibition)” value [4] was 75%, the TGI [5] was 63% and the TGI [6] was 69%. It also gave a TGI [7] of 65% and a TGI [8] of 40%.

In the case of Bevacizumab, the “maximum median body weight loss” value [1] was 9.1%, the TGI [2] was 63% and the “median TGI (tumor growth inhibition)” value [4] was 82%. The TGI [5] was 68%, the TGI [6] was 59% and the TGI [8] was 37%.

`CCN(CC)CCNC(=O)c1c(C)[nH]c(/C=C2\C(=O)Nc3ccc(F)cc32)c1C` [Sunitinib] showed a TGI [9] of 62%.
